According to PubChem BioAssay (NCI):
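A five-concentration, 48-hour dose response in 96-well plates underlies each endpoint, interpolated linearly between surrounding concentrations. Abbreviation: GI50, concentration required for 50% inhibition of growth. TGI: total growth inhibition.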

What was measured:
Test in all cases: growth of human tumour cells (NCI), 48 h
[1] = tested on: A549 NSCLC
[2] = tested on: SF-539 CNS
[3] = tested on: EKVX NSCLC
[4] = tested on: SK-OV-3 ovarian
[5] = tested on: HCT-15 colon
[6] = tested on: CCRF-CEM leukemia
[7] = tested on: NCI-H226 lung
[8] = tested on: RPMI-8226 leukemia
[9] = tested on: OVCAR-3 ovarian
[10] = tested on: BT-549 breast
[11] = tested on: ACHN renal
[12] = tested on: COLO 205 colon
[13] = tested on: DU-145 prostate
[14] = tested on: IGROV1 ovarian
[15] = tested on: UACC-257 melanoma
[16] = tested on: SK-MEL-28 melanoma
[17] = tested on: NCI/ADR-RES ovarian
[18] = tested on: M14 melanoma
[19] = tested on: SNB-75 CNS
[20] = tested on: CAKI-1 renal
[21] = tested on: UACC-62 melanoma
[22] = tested on: OVCAR-4 ovarian
[23] = tested on: MDA-MB-231 breast
[24] = tested on: SK-MEL-2 melanoma
[25] = tested on: HT29 colon
[26] = tested on: NCI-H460 lung
[27] = tested on: HOP-92 NSCLC
[28] = tested on: U251 CNS
[29] = tested on: TK-10 renal
[30] = tested on: HCC-2998 colon
[31] = tested on: NCI-H522 lung
[32] = tested on: MALME-3M melanoma
[33] = tested on: RXF 393 renal
[34] = tested on: SF-268 CNS
[35] = tested on: UO-31 renal
[36] = tested on: OVCAR-5 ovarian
[37] = tested on: HOP-62 NSCLC
[38] = tested on: SN12C renal
[39] = tested on: PC-3 prostate
[40] = tested on: KM12 colon
[41] = tested on: MDA-MB-435
[42] = tested on: SF-295 CNS
[43] = tested on: HCT-116 colon
[44] = tested on: OVCAR-8 ovarian
[45] = tested on: 786-0 renal
[46] = tested on: T-47D breast
[47] = tested on: NCI-H23 lung
[48] = tested on: MCF7 breast
[49] = tested on: A498 renal
[50] = tested on: SR leukemia
[51] = tested on: HS 578T breast
[52] = tested on: SNB-19 CNS
[53] = tested on: SW-620 colon
[54] = tested on: SK-MEL-5 melanoma
[55] = tested on: LOX IMVI melanoma
[56] = tested on: HL-60(TB) leukemia
[57] = tested on: K-562 leukemia
[58] = tested on: MOLT-4 leukemia

`CCN(CC)CCCNc1cccc2c(SCc3ccccc3)ccnc12` was tested, and the GI50 [1] was 1.73 µM, the TGI [1] was 3.33 µM and the GI50 [2] was 1.63 µM. For the same molecule, the TGI [2] was 3.13 µM, the GI50 [3] was 2.24 µM and the TGI [3] was 6.71 µM. The GI50 [4] was 2.02 µM, the TGI [4] was 4.51 µM and the GI50 [5] was 1.72 µM. It also gave a TGI [5] of 3.82 µM, a GI50 [6] of 0.179 µM and a TGI [6] of 3 µM. The GI50 [7] was 3.45 µM, the TGI [7] was 15.6 µM and the GI50 [8] was 1.24 µM. For the same molecule, the TGI [8] was 3.37 µM, the GI50 [9] was 1.75 µM and the TGI [9] was 3.43 µM. For the same molecule, the GI50 [10] was 1.62 µM, the TGI [10] was 3.35 µM and the GI50 [11] was 1.81 µM. It also gave a TGI [11] of 3.27 µM, a GI50 [12] of 1.84 µM and a TGI [12] of 3.44 µM. For the same molecule, the GI50 [13] was 1.86 µM, the TGI [13] was 3.49 µM and the GI50 [14] was 1.9 µM. The TGI [14] was 3.75 µM, the GI50 [15] was 2.09 µM and the TGI [15] was 3.85 µM. For the same molecule, the GI50 [16] was 1.99 µM, the TGI [16] was 3.5 µM and the GI50 [17] was 1.96 µM. For the same molecule, the TGI [17] was 5.6 µM, the GI50 [18] was 1.96 µM and the TGI [18] was 3.6 µM. It also gave a GI50 [19] of 1.6 µM, a TGI [19] of 3.22 µM and a GI50 [20] of 1.59 µM. For the same molecule, the TGI [20] was 3.21 µM, the GI50 [21] was 1.74 µM and the TGI [21] was 3.37 µM. The GI50 [22] was 2.62 µM, the TGI [22] was 8.29 µM and the GI50 [23] was 1.01 µM. The TGI [23] was 2.48 µM, the GI50 [24] was 1.89 µM and the TGI [24] was 3.56 µM. For the same molecule, the GI50 [25] was 0.907 µM, the TGI [25] was 2.3 µM and the GI50 [26] was 1.7 µM. The TGI [26] was 3.45 µM, the GI50 [27] was 2.18 µM and the TGI [27] was 7.32 µM. It also gave a GI50 [28] of 1.69 µM, a TGI [28] of 3.25 µM and a GI50 [29] of 1.56 µM. For the same molecule, the TGI [29] was 2.98 µM, the GI50 [30] was 1.73 µM and the TGI [30] was 3.2 µM. For the same molecule, the GI50 [31] was 1.51 µM, the TGI [31] was 3.1 µM and the GI50 [32] was 2.13 µM. It also gave a TGI [32] of 4 µM, a GI50 [33] of 1.87 µM and a TGI [33] of 3.44 µM. The GI50 [34] was 1.51 µM, the TGI [34] was 3.33 µM and the GI50 [35] was 0.828 µM. It also gave a TGI [35] of 2.44 µM, a GI50 [36] of 2 µM and a TGI [36] of 3.76 µM. The GI50 [37] was 1.61 µM, the TGI [37] was 3.05 µM and the GI50 [38] was 1.81 µM. It also gave a TGI [38] of 12.6 µM, a GI50 [39] of 1.86 µM and a TGI [39] of 4.88 µM. The GI50 [40] was 1.75 µM, the TGI [40] was 3.38 µM and the GI50 [41] was 1.84 µM. The TGI [41] was 3.65 µM, the GI50 [42] was 1.8 µM and the TGI [42] was 3.48 µM. For the same molecule, the GI50 [43] was 1.6 µM, the TGI [43] was 2.95 µM and the GI50 [44] was 3.41 µM. For the same molecule, the TGI [44] was 11.5 µM, the GI50 [45] was 1.56 µM and the TGI [45] was 2.99 µM. For the same molecule, the GI50 [46] was 1.93 µM, the TGI [46] was 4.29 µM and the GI50 [47] was 1.9 µM. For the same molecule, the TGI [47] was 5.09 µM, the GI50 [48] was 1.62 µM and the TGI [48] was 3.16 µM. For the same molecule, the GI50 [49] was 1.92 µM, the TGI [49] was 4.98 µM and the GI50 [50] was 1.79 µM. For the same molecule, the TGI [50] was 4.47 µM, the GI50 [51] was 2.2 µM and the TGI [51] was 6.31 µM. The GI50 [52] was 1.83 µM, the TGI [52] was 3.89 µM and the GI50 [53] was 1.7 µM. For the same molecule, the TGI [53] was 3.46 µM, the GI50 [54] was 1.68 µM and the TGI [54] was 3.08 µM.
`O=[N+]([O-])c1ccc(-c2nc(-c3ccccc3)c(-c3ccccc3)n2-c2ccccc2)cc1` showed a GI50 [1] of 3.01 µM, a TGI [1] of 12.6 µM and a GI50 [2] of 2.02 µM. It also gave a TGI [2] of 4.78 µM, a GI50 [3] of 2.93 µM and a TGI [3] greater than 26.6 µM. The GI50 [4] was 2.03 µM, the TGI [4] was 9.21 µM and the GI50 [5] was 2.82 µM. The TGI [5] was 8.76 µM, the GI50 [6] was 2.83 µM and the TGI [6] was greater than 23.8 µM. It also gave a GI50 [7] of 4.57 µM, a TGI [7] greater than 24.5 µM and a GI50 [8] of 1.53 µM. For the same molecule, the TGI [8] was 5.43 µM, the GI50 [9] was 2.43 µM and the TGI [9] was 6.67 µM. The GI50 [55] was 2.4 µM, the TGI [55] was 6.86 µM and the GI50 [10] was 2.16 µM. The TGI [10] was 6.53 µM, the GI50 [11] was 2.62 µM and the TGI [11] was 27.4 µM. It also gave a GI50 [12] of 1.78 µM, a TGI [12] of 3.49 µM and a GI50 [56] of 2.41 µM. It also gave a TGI [56] of 5.83 µM, a GI50 [13] of 2.72 µM and a TGI [13] of 12.2 µM. For the same molecule, the GI50 [14] was 2.42 µM, the TGI [14] was 7.28 µM and the GI50 [15] was 2.39 µM. For the same molecule, the TGI [15] was 5.87 µM, the GI50 [16] was 2.99 µM and the TGI [16] was 9.97 µM. It also gave a GI50 [17] of 2.68 µM, a TGI [17] of 7.88 µM and a GI50 [57] of 3.24 µM. The TGI [57] was 95.9 µM, the GI50 [18] was 3.57 µM and the TGI [18] was 16 µM. The GI50 [19] was 2.64 µM, the TGI [19] was 22 µM and the GI50 [20] was 3.04 µM. For the same molecule, the TGI [20] was greater than 28.4 µM, the GI50 [21] was 2.18 µM and the TGI [21] was 8.53 µM. The GI50 [22] was 2.94 µM, the TGI [22] was 14.9 µM and the GI50 [23] was 2.36 µM. The TGI [23] was 7.04 µM, the GI50 [24] was 3.04 µM and the TGI [24] was 8.6 µM. For the same molecule, the GI50 [25] was 1.75 µM, the TGI [25] was 3.37 µM and the GI50 [26] was 2.43 µM. The TGI [26] was 7.06 µM, the GI50 [27] was 2.42 µM and the TGI [27] was 7.44 µM. The GI50 [28] was 2.74 µM, the TGI [28] was 10.7 µM and the GI50 [29] was 4.01 µM. For the same molecule, the TGI [29] was 16.9 µM, the GI50 [30] was 2.07 µM and the TGI [30] was 4.1 µM. It also gave a GI50 [31] of 3.05 µM, a TGI [31] greater than 28.4 µM and a GI50 [32] of 2.78 µM. The TGI [32] was 8.58 µM, the GI50 [33] was 3.08 µM and the TGI [33] was 9.78 µM. For the same molecule, the GI50 [34] was 3.7 µM, the TGI [34] was 17.6 µM and the GI50 [35] was 1.99 µM. For the same molecule, the TGI [35] was 6.67 µM, the GI50 [36] was 4.7 µM and the TGI [36] was 28.7 µM. For the same molecule, the GI50 [37] was 5.36 µM, the TGI [37] was greater than 86.2 µM and the GI50 [38] was 2.69 µM. It also gave a TGI [38] of 12.4 µM, a GI50 [39] of 2.74 µM and a TGI [39] greater than 31.1 µM. For the same molecule, the GI50 [58] was 2.28 µM, the TGI [58] was 11.5 µM and the GI50 [40] was 2.3 µM. It also gave a TGI [40] of 5.6 µM, a GI50 [41] of 2.5 µM and a TGI [41] of 7.63 µM. For the same molecule, the GI50 [42] was 2.68 µM, the TGI [42] was 8.25 µM and the GI50 [43] was 3.47 µM. It also gave a TGI [43] of 14 µM, a GI50 [44] of 3.19 µM and a TGI [44] greater than 100 µM. For the same molecule, the GI50 [45] was 4.82 µM, the TGI [45] was 22.3 µM and the GI50 [46] was 2.19 µM. The TGI [46] was 7.29 µM, the GI50 [47] was 2.62 µM and the TGI [47] was 11.3 µM. The GI50 [48] was 2.04 µM, the TGI [48] was 6.28 µM and the GI50 [49] was 2.81 µM. For the same molecule, the TGI [49] was 9.12 µM, the GI50 [50] was 6.2 µM and the TGI [50] was greater than 100 µM. For the same molecule, the GI50 [51] was 2.74 µM, the TGI [51] was 14.4 µM and the GI50 [52] was 3.75 µM. For the same molecule, the TGI [52] was greater than 48.8 µM, the GI50 [53] was 2.6 µM and the TGI [53] was 9.28 µM. It also gave a GI50 [54] of 1.8 µM and a TGI [54] of 3.81 µM.
